This is an account of results in patent US20120245180A1, “COMBINATION” (GlaxoSmithKline LLC, priority 2009, published 2012).

Read-outs that look alike come from different tables or passages of the source. A value given as a limit tells only on which side of the number the result lay.

What all share (experiment): Cell growth inhibition assay, breast tumor cell line (Cell Titer Glo)
Common to all, as to type: cell-based
(In ATP-based viability assays light output follows the ATP content of the culture.)

One assay concerns SK-BR-3. The conditions noted are these: Homo sapiens, 72 h, SK-BR-3 (HER2+), 3 days. As for the experimental part:
(§1) Human tumor cell lines from hepatocellular carcinoma (HCC), C3A, Hep3B, HepG2, PLC/PRF/5, SNU182, SNU387, SNU398, SNU423, SNU449 and SNU475 were purchased from the ATCC. Human breast tumor cell lines, HCC2218, HCC1419, BT-474, SK-BR-3, UACC893, JIMT-1, MDA-MB-361, HCC202, MDA-MB-175-VII, HCC1569, HCC1937, HCC38, MDA-MB-157, HCC1954, HCC1500, BT483, KPL-1, SUM225 and ZR-75-1 from ATCC, SUM52 and SUM190 from Asterand, PLC (Detroit Mich.), were cultured in RPMI 1640 medium containing 10% FBS; SKBR3-W13 and BT-474-J4 cultured in RPMI 1640 medium containing 10% FBS and 1 μM lapatinib; KPL4 line was kindly provided by Dr Junichi Kurebayashi (Kawasaki Medical School, Okayama, Japan) and cultured in DMEM containing 5% FBS. JIMT-1 from European Collection of Cell Cultures (UK), is a line derived from a patient clinically resistant to trastuzumab (Herceptin®). SK-BR-3-W13 is a single cell clone isolated by a cloning cylinder after a single treatment of SK-BR-3 cells with 0.5 μM lapatinib. BT-474-J4 is a single cell clone derived from a pool of BT-474 cells that were selected to grow in lapatinib to a concentration of 3 μM.
(§2) Cells were seeded in a 96-well tissue culture plate (NUNC 136102) of RPMI medium containing 10% FBS at 500-2,000 cells per well. Approximately 24 hours after plating, cells were exposed to ten, two-fold or three-fold serial dilutions of either Compound A or B or the combination of the two agents at a 2:1 molar ratio (Compounds A and B respectively). In some cases, cells were grown in RPMI media containing 10% FBS and in the presence or absence of 2 ng/mL hepatocyte growth factor (HGF). Cells were incubated in the presence of compounds for 3 days. ATP levels were determined by adding Cell Titer Glo® (Promega) according to the manufacturer's protocol. Briefly, Cell Titer Glo® was added to each plate, incubated for 20 minutes then luminescent signal was read on the SpectraMax L plate reader with a 0.5 sec integration time. All assays were run at least in duplicate.
(§3) Inhibition of cell growth was estimated after treatment with compound or combination of compounds for three days and comparing the signal to cells treated with vehicle (DMSO). Cell growth was calculated relative to vehicle (DMSO) treated control wells. Concentration of compound that inhibits 50% of control cell growth (IC50) was back-interpolated when y=50% of DMSO treated control wells using nonlinear regression with the equation: […]
(§4) where A is the minimum response (ymin), B is the maximum response (Ymax), C is the inflection point of the curve (EC50) and D is the Hill coefficient.
(§5) Combination effects on potency were evaluated using the Combination Index (CI) and Excess Over Highest Single Agent (EHOSA) methods.
(§6) DNA Copy number data on the HER2 gene was collected for all breast cancer cell lines using the Affymetrix 500K chip (Affymetrix Inc, Sunnyvale, Calif.). Briefly DNA was extracted from each line, digested with the restriction enzyme Nsp or Sty, ligated to an adaptor and amplified by PCR. After PCR, DNA was fragmented, labeled, denatured, and hybridized to the Affymetrix 500K chip. Upon completion of hybridization, each assay was washed and stained. Image data were acquired. Similarly collected data from a panel 10 diploid non-tumorigenic lymphoblastic cell lines were used to calculate DNA copy number. All ‘SNP Chip’ images ('CEL files'), were extracted, read and normalized using the dChip software package (Lin et al. 2004. Bioinformatics. 20:1233-40). SNP-wise ‘copy-number ratios’ (log2 scale) were calculated for all cancer cell lines using the lymphoblastic reference panel and analyzed by circular binary segmentation to reduce noise (Olshen et al. 2004. Biostatistics. 5:557-72). Cell lines with log2 ratios of HER2>0.65 were considered HER2+.

A further assay deals with HCC38. The conditions noted are these: Homo sapiens, 72 h, HCC38 (HER2−), 3 days. As for the experimental part:
as §1, §2, §3, §4, §5, §6

A further assay deals with UACC893. The conditions noted are these: Homo sapiens, UACC-893, 72 h, UACC893 (HER2+), 3 days. Here is the method:
as §1, §2, §3, §4, §5, §6

In another assay the test system is BT474. The conditions noted are these: Homo sapiens, BT-474, 72 h, BT474 (HER2+), 3 days. As for the experimental part:
as §1, §2, §3, §4, §5, §6

A further assay relates to HCC1500. The following applies: Homo sapiens, 72 h, HCC1500 (HER2−), 3 days. As for the experimental part:
as §1, §2, §3, §4, §5, §6

For a further assay, the system named is MDA-MB-157. The following applies: Homo sapiens, 72 h, MDA-MB-157 (HER2−), 3 days. Here is the method:
as §1, §2, §3, §4, §5, §6

The subject of the next assay is MDA-MB-361. The following applies: Homo sapiens, 72 h, MDA-MB-361 (HER2+), 3 days. As for the experimental part: as §1, §2, §3, §4, §5, §6
The test system of a further assay is SK-BR-3-W13. The following applies: Homo sapiens, 72 h; SK-BR-3-W13 (HER2+), 3 days; read-out: Single agent IC50, Compound A. Here is the method:
as §1, §2, §3, §4, §5, §6

The next assay has as its system HCC1419. The conditions noted are these: Homo sapiens, 72 h, HCC1419 (HER2+), 3 days. Here is the method: as §1, §2, §3, §4, §5, §6
A further assay relates to KPL4. The conditions noted are these: Homo sapiens, 72 h, KPL4 (HER2+), 3 days. Here is the method: as §1, §2, §3, §4, §5, §6
In a further assay the test system is KPL1. The following applies: Homo sapiens, KPL-1, 72 h, KPL1 (HER2−), 3 days. As for the experimental part:
as §1, §2, §3, §4, §5, §6

[1] abbreviates: read-out: Single agent IC50, Compound A.
The mark [2] stands for this setting: read-out: Single agent IC50, Compound B.

Usually IC50 stands for the concentration needed to halve the response being measured.

Take `CC(=O)Nc1cccc(-n2c(=O)n(C3CC3)c(=O)c3c(Nc4ccc(I)cc4F)n(C)c(=O)c(C)c32)c1` [Compound A, N-{3-[3-cyclopropyl-5-[(2-fluoro-4-iodophenyl)amino]-6,8-dimethyl-2,4,7-trioxo-3,4,6,7-tetrahydropyrido[4,3-d]pyrimidin-1(2H)-yl]phenyl}acetamide]: the 50% inhibitory concentration (IC50) in the assay on SK-BR-3 (setting [1]), in the assay with HCC38 (setting [1]), with UACC893 (setting [1]), with BT474 (setting [1]), in the assay with HCC1500 (setting [1]) and in the assay with MDA-MB-157 (setting [1]) was above 1000 nM in each case. Moreover, the half-maximal inhibitory concentration (IC50) in the assay with MDA-MB-361 (setting [1]), in the assay on SK-BR-3-W13, with HCC1419 (setting [1]), with KPL4 (setting [1]) and in the assay on KPL1 (setting [1]) was above 1000 nM in each case.

As for `COc1ncc(-c2ccc3nccc(-c4ccnnc4)c3c2)cc1NS(=O)(=O)c1ccc(F)cc1F` [Compound B, 2,4-difluoro-N-{2-(methyloxy)-5-[4-(4-pyridazinyl)-6-quinolinyl]-3-pyridinyl}benzenesulfonamide], the half-maximal inhibitory concentration (IC50) is 24 ± 20 nM in the assay on SK-BR-3 (setting [2]); 95 ± 34 nM in the assay with HCC38 (setting [2]); 3 ± 3 nM with UACC893 (setting [2]); 30 ± 7 nM in the assay with BT474 (setting [2]); 61 ± 36 nM with HCC1500 (setting [2]); above 1000 nM in the assay on MDA-MB-157 (setting [2]). Further, the IC50 was determined as 9 ± 2 nM in the assay on MDA-MB-361 (setting [2]), 24 ± 14 nM in the assay on HCC1419 (setting [2]), 3 ± 1 nM in the assay with KPL4 (setting [2]) and 8 ± 4 nM in the assay on KPL1 (setting [2]).
